Measured values as given in ChEMBL document CHEMBL3751821, “The semi-synthesis of novel andrographolide analogues and anti-influenza virus activity evaluation of their derivatives” (Bioorg Med Chem Lett, 2016).
Converted amounts (≈) assume the structure as drawn.

What was measured:
[1] = test system: Influenza A virus H3N2; experiment: Antiviral activity against Influenza A virus H3N2 A3/JINGKE/30/95 infected in MDCK cells assessed as inhibition of virus-induced cytopathic effect after 72 hrs; assay type: functional, organism-based
[2] = (§1) Cytotoxicity against MDCK cells after 72 hrs by MTT assay; assay type: cell-based, Canis lupus familiaris; details: dog, MDCK cells; read-out: TC50
[3] = test system: MDCK; experiment: as §1; assay type: cell-based, Canis lupus familiaris; details: dog, mdck, 72 h
[4] = Therapeutic index, ratio of TC50 for MDCK cells to IC50 for Influenza A virus H3N2 A3/JINGKE/30/95; assay type: cell-based; details: dog, read-out: TI
[5] = Influenza A virus, A3/JINGKE/30/95, MDCK, 72 h, read-out: IC50

| SMILES | IC50 ([1]; mdck) | CC50 at 72 h [2] | IC50 [1, 5] | TC50 [3] | selectivity ratio [4] |
| --- | --- | --- | --- | --- | --- |
| C[C@@]1(CO)[C@H](O)CC[C@@]2(C)C(CCC3=CCOC3=O)=C(Cn3ccc(=O)[nH]c3=O)CC[C@H]12 | Not Active | > 200 µg/mL | – | – | – |
| C[C@@]1(CO)[C@H](O)CC[C@@]2(C)C(CCC3=CCOC3=O)=C(CNC34CC5CC(CC(C5)C3)C4)CC[C@H]12 | Not Active | > 200 µg/mL | – | – | – |
| C[C@]1(CO)[C@H]2CC=C(Cn3ccc(=O)[nH]c3=O)[C@@H](CCC3=CCOC3=O)[C@]2(C)CC[C@H]1O | – | – | 192 µg/mL (≈ 431 µM) | Non-toxic | – |
| C[C@]1(CO)[C@H]2CC=C(Cn3ccnc3)[C@@H](CCC3=CCOC3=O)[C@]2(C)CC[C@H]1O | – | 212 µg/mL (≈ 529 µM) | 201 µg/mL (≈ 502 µM) | – | 1.05 |
| C[C@]1(CO)[C@H]2CC=C(Cn3cnc4ncnc(N)c43)[C@@H](CCC3=CCOC3=O)[C@]2(C)CC[C@H]1O | – | 524 µg/mL (≈ 1120 µM) | 192 µg/mL (≈ 411 µM) | – | 2.72 |
| C[C@]1(CO)[C@H]2CC=C(Cn3cccn3)[C@@H](CCC3=CCOC3=O)[C@]2(C)CC[C@H]1O | Not Active | 122 µg/mL (≈ 305 µM) | – | – | – |
| C[C@]1(CO)[C@H]2CC=C(Cn3cncn3)[C@@H](CCC3=CCOC3=O)[C@]2(C)CC[C@H]1O | Not Active | – | – | Non-toxic | – |
| C[C@@]1(CO)[C@H](O)CC[C@@]2(C)C(CCC3=CCOC3=O)=C(CN3CCOCC3)CC[C@H]12 | Not Active | > 200 µg/mL | – | – | – |
| C[C@]1(CO)[C@H]2CC=C(Cn3ccc(N)nc3=O)[C@@H](CCC3=CCOC3=O)[C@]2(C)CC[C@H]1O | – | 491 µg/mL (≈ 1110 µM) | 186 µg/mL (≈ 419 µM) | – | 2.64 |
| C[C@]1(CO)[C@H]2CC=C(CN3CCOCC3)[C@@H](CCC3=CCOC3=O)[C@]2(C)CC[C@H]1O | Not Active | – | – | Non-toxic | – |
| C[C@]1(CO)[C@H]2CC=C(CNCc3ccccc3)[C@@H](CCC3=CCOC3=O)[C@]2(C)CC[C@H]1O | – | 965 µg/mL (≈ 2190 µM) | 122 µg/mL (≈ 277 µM) | – | 7.91 |
| Cc1cn(CC2=C(CCC3=CCOC3=O)[C@]3(C)CC[C@@H](O)[C@@](C)(CO)[C@H]3CC2)c(=O)[nH]c1=O | Not Active | > 200 µg/mL | – | – | – |
| C[C@@]1(CO)[C@H](O)CC[C@@]2(C)C(CCC3=CCOC3=O)=C(Cn3cncn3)CC[C@H]12 | Not Active | > 200 µg/mL | – | – | – |
| Cc1cn(CC2=CC[C@@H]3[C@](C)(CO)[C@H](O)CC[C@@]3(C)[C@@H]2CCC2=CCOC2=O)c(=O)[nH]c1=O | – | – | 201 µg/mL (≈ 438 µM) | Non-toxic | – |
| C[C@]1(CO)[C@H]2CC=C(CNC34CC5CC(CC(C5)C3)C4)[C@@H](CCC3=CCOC3=O)[C@]2(C)CC[C@H]1O | – | 2380 µg/mL (≈ 4910 µM) | 161 µg/mL (≈ 332 µM) | – | 14.8 |
| C[C@@]1(CO)[C@H](O)CC[C@@]2(C)C(CCC3=CCOC3=O)=C(Cn3ccnc3)CC[C@H]12 | Not Active | > 200 µg/mL | – | – | – |
| C[C@@]1(CO)[C@H](O)CC[C@@]2(C)C(CCC3=CCOC3=O)=C(CNCc3ccccc3)CC[C@H]12 | Not Active | > 200 µg/mL | – | – | – |
| C[C@@]1(CO)[C@H](O)CC[C@@]2(C)C(CCC3=CCOC3=O)=C(Cn3ccc(N)nc3=O)CC[C@H]12 | Not Active | > 200 µg/mL | – | – | – |
| C=C1CC[C@@H]2[C@](C)(CO)[C@H](O)CC[C@@]2(C)[C@@H]1CC(C1=CCOC1=O)S(=O)(=O)[O-].[Na+] (some centres not stated) | – | 2280 µg/mL | 176 µg/mL | – | 12.9 |
| C[C@@]12CC[C@@H](O)[C@@](C)(CO)C1CCC(CO)=C2CCC1=CCOC1=O (single isomer, unassigned) | Not Active | 124 µg/mL (≈ 355 µM) | – | – | – |
| C[C@]1(CO)C2CC=C(CO)[C@@H](CCC3=CCOC3=O)[C@]2(C)CC[C@H]1O (single isomer, unassigned) | – | 678 µg/mL (≈ 1940 µM) | 197 µg/mL (≈ 562 µM) | – | 3.44 |
| NC(=O)c1ncn([C@@H]2O[C@H](CO)[C@@H](O)[C@H]2O)n1 [RIBAVIRIN] | – | 3280 µg/mL (≈ 13400 µM) | 87.7 µg/mL (≈ 359 µM) | – | 37.4 |
